Results reported in patent publication US20200255884A1, “METHOD OF DETECTION OF DNA END(S) AND ITS USE” (INTODNA SP. Z O.O., priority 2017, published 2020).

Tests used:
HeLa 21-4 cells [1] = experiment: Detection of DNA breaks induced by photodynamic effect (ethidium bromide + 488 nm laser) in HeLa cells, Procedure 1; assay type: cell-based; conditions: ethidium bromide (500 μM) 10 min, dose 9 mJ
Method: In this experiment the DNA breaks were induced by treating live cells (HeLa 21-4 cells, obtained from prof. P.R. Cook, Oxford University) with ethidium bromide (500 μM) for 10 min and then parking the laser beam (488 nm) at a chosen place inside the nucleus (dose: 9 mJ) 2 minutes after illumination step 2 of Procedure 1 was performed. The aim of the experiment was to directly detect DNA break (s) inflicted at a specific area of the cell nucleus by a photodynamic effect.
HeLa 21-4 cells were first seeded on 18-mm coverslips and cultured for 3 days in DMEM supplemented with 10% FBS. After culturing, DNA damage was induced in chosen cells, as described previously, followed by incubation in 70% ethanol in water, 15 h, −20° C. After that, increasing of accessibility of DNA ends (step 4) was performed with 10 mM EDTA in water, 1 h, RT. Incorporation of modified (BrdUTP) nucleotides (Phoenix Flow Systems) by terminal deoxynucleotidyl transferase was performed according to the kit supplier's instructions (APO-BRDU kit, Phoenix Flow Systems). The cells were then incubated with 1% BSA solution in PBS (overnight in 4° C.). The incubation with primary antibodies type 1 and 2 according to step 7 of Procedure 2 were performed using mouse monoclonal anti-BrdU (Abcam, ab8039) and rabbit polyclonal anti-BrdU (Abcam, ab152095) (1:100 in 1% BSA), respectively. […]

HeLa 21-4 cells [2] = experiment: DNA ends detection in fixed HeLa cells subjected to damaging agents (H2O2, Tpt), Procedure 1; assay type: cell-based; conditions: 30 min at 37 °C, H2O2 4 mM, Tpt 20 μM
Method: Procedure: • 1. Pre-preparation (optional): • Incubation of live cells with 0.5-10 mM Tris (5 min-1 h at room temperature (RT)), cells should be monitored for morphological abnormalities. • 2. Fixation and permeabilization: • a. Incubation with 1%-4% formaldehyde solution, 10-15 min, 4° C. (optional) • b. Incubation with an […] detergent (e.g. Triton X-100 (0.25-3%) 10 min-1 h, RT. (optional) • c. Incubation in 70% ethanol in water, 1 h minimum but preferred 12-18 h, −20° C., sample should be stable for several months. (optional but most preferred) • 3. Pre-blocking (optional): • a. Wash (PBS 1×5 min) • b. Streptavidin solution—incubation performed on a droplet, 30 min, RT • c. Wash (PBS 3×5 min) • d. Biotin solution—incubation performed on a droplet, 30 min, RT • e. Wash (PBS 3×5 min) • 4. Increasing accessibility of DNA ends: • Incubation with 0.5-10 mM EDTA in water, 10 min-1 h, RT. • 5. Incorporation procedure: • Incorporation of unmodified and modified nucleotides (e.g. BrdU) using terminal deoxynucleotidyl transferase: • a. incubation is performed on a droplet in a humid chamber • b. samples are rinsed in wash buffers • 6. Blocking: • Incubation with 1-5% BSA solution in PBS (from 1 h to overnight in 4° C., RT). • 7. Incubation with primary antibodies—performed on a droplet in a humid chamber: • a. primary antibodies type 1 (e.g. mouse monoclonal against BrdU), preferred dilution 1:100 in 1-5% BSA, 1 h, RT • b. wash (PBS 3×5 min) • c. primary antibodies type 2 (e.g. rabbit polyclonal against BrdU), preferred dilution 1:100 in 1-5% BSA, 1 h, RT • d. wash (PBS 3×5 min) • 8. PLA procedure: • a. incubation with PLA Probes diluted in 1% BSA (37° C., 60 min, reaction on a droplet, in a humid chamber) in 40 μl of the reaction mixture per one coverslip: • 8 μl of PLA Probe MINUS stock (e.g. anti-mouse) • 8 μl of PLA Probe PLUS stock (e.g. anti-rabbit) • 24 μl of 1% BSA • b. wash samples with Wash Buffer A (2×5 min) • c. ligation—incubation (37° C., 30 min, reaction on a droplet, in a humid chamber) in 40 μl of the reaction mixture per one coverslip: • 8 μl of 5× Ligation stock (Sigma, Duolink, DUO82009), • 31 μl of ultrapure, RNAse/DNAse free, distilled water, • 1 μl of Ligase (1 U/μl) (Sigma, Duolink, DUO82027 or DUO82029) • d. wash samples with Wash Buffer A (2×2 min) • e. amplification—incubation (37° C., 100 min, reaction performed on a droplet, in a humid chamber) in 40 μl of the reaction mixture per one coverslip: • 8 μl of 5× Amplification stock (Sigma, Duolink, DUO82060 or DUO82011), • 31.5 μl of ultrapure, RNAse/DNAse free, distilled water, • 0.5 μl of Polymerase (10 U/μl) (Sigma, Duolink, DUO82028 or DUO82030) • 9. Imaging of samples in PBS using a fluorescence microscope. […]

CC[n+]1c(-c2ccccc2)c2cc(N)ccc2c2ccc(N)cc21 [ethidium bromide]
damaged nuclei with fluorescence focus visible at the illuminated place or in its direct proximity (HeLa 21-4 cells [1]): 90%

CC[C@@]1(O)C(=O)OCc2c1cc1n(c2=O)Cc2cc3c(CN(C)C)c(O)ccc3nc2-1 [Tpt, topotecan]
percentage of cells that show signs of heavy DNA damage (apoptotic cells) in the population (HeLa 21-4 cells [2]; untreated less than 5%): approximately 18%
average number of detectable regions of incorporation of BrdU (free ends of DNA) per cell (HeLa 21-4 cells [2]; ± standard error of the mean): 16.39±4.92
